Measurements from patent publication US9995734B2, “Human T cell line assay for evaluating the immunologic identity of glatiramer acetate preparations” (Mylan Inc., priority 2013, dated 2018).
Values joined by “and” are separate entries in the source; they are usually repeats but may differ in a detail not shown here. Equal entries are not always repeated.

How the values were obtained:
[1] = tested on: Donor 1 COP T-Cell Lines; test: ATP proliferation assay (CellTiter Glo), Donor 1 COP T-cell lines, incl. reactivity to non-canonical GA peptides; type: cell-based, human; settings: for response to GMA in comparison to COP: 10 μg/mL dose; for ATP Proliferation Assay, Mean: Day 56, second assay; for ATP proliferation assay: 48 hours after stimulation; for luminescent ATP proliferation assay, mean: no antigen 5673 (Table 9); for Proliferation (luminescent ATP assay), Mean: Day 56 of culturing
Procedure, shortened: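 Donor 1 COP-derived T-cell lines restimulated with GA, COP, GMA or non-canonical GA peptides (1–30 µg/mL) alongside mitomycin C-treated autologous PBMC or B-LCL APC. Proliferation read as ATP content by CellTiter Glo luminescence, 48 h after stimulation in later screens (3 days in initial split-well screens). Controls: no antigen (GMA series), MBP (COP series).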

[2] = tested on: Donor 4 COP T-Cell Lines; test: ATP proliferation assay (CellTiter Glo), Donor 4 COP T-cell lines, incl. reactivity to non-canonical GA peptides; type: cell-based, human; settings: for response to GMA in comparison to COP: 10 μg/mL dose; for Mean, ATP proliferation assay: Cell Line 205-1F4; for Proliferation (luminescent ATP assay), Mean: T-cell line 205-1F4, autologous B-LCL; for Non-Canonical Peptide Non-Reactivity: proliferation <2 times no antigen control

For glatiramer acetate [GMA], the “response to GMA in comparison to COP” value ([1]; 222-2D8, Day 56 (Table 6)) was 103.4%, the “response to GMA in comparison to COP” value ([1]; 222-2D8, second assay (Table 7)) was 107.1% and the “ATP Proliferation Assay, Mean” value ([1]; 222-2D8, 1 μg/mL (Table 7)) was 2078. The “ATP Proliferation Assay, Mean” value ([1]; 222-2D8, 3 μg/mL (Table 7)) was 149752, the “ATP Proliferation Assay, Mean” value ([1]; 222-2D8, 10 μg/mL (Table 7)) was 156417 and the ATP proliferation assay ([1]; 222-2D8, Day 56, 1 μg/mL (Table 6)) was 4369. For the same substance, the ATP proliferation assay ([1]; 222-2D8, Day 56, 3 μg/mL (Table 6)) was 7480, the ATP proliferation assay ([1]; 222-2D8, Day 56, 10 μg/mL (Table 6)) was 12793 and the “response to GMA in comparison to COP” value ([1]; 222-2F12 (printed 222-2F1), Day 56 (Table 8)) was 85.1%. The “response to GMA in comparison to COP” value ([1]; 222-2F12, Day 56 (Table 9)) was 99.4%, the “luminescent ATP proliferation assay, mean” value ([1]; 222-2F12, Day 56, 3 μg/mL) was 232779 and the “luminescent ATP proliferation assay, mean” value ([1]; 222-2F12, Day 56, 10 μg/mL) was 228761. The “luminescent ATP proliferation assay, mean” value ([1]; 222-2F12, Day 56, 30 μg/mL) was 125994, the ATP proliferation assay ([1]; 222-2F12, Day 56, 1 μg/mL (Table 8)) was 6500 and the ATP proliferation assay ([1]; 222-2F12, Day 56, 3 μg/mL (Table 8)) was 8520. The ATP proliferation assay ([1]; 222-2F12, Day 56, 10 μg/mL (Table 8)) was 12382, the “Proliferation (luminescent ATP assay), Mean” value ([1]; T-cell line 222-1H12, 3 μg/mL antigen, 0 μg/mL 5974) was 141486 RLU and the “Proliferation (luminescent ATP assay), Mean” value ([1]; T-cell line 222-1H12, 10 μg/mL antigen, 0 μg/mL 5974) was 167193 RLU. For the same substance, the “Proliferation (luminescent ATP assay), Mean” value ([1]; T-cell line 222-1H12, 30 μg/mL antigen, 0 μg/mL 5974) was 82376 RLU, the “Proliferation (luminescent ATP assay), Mean” value ([1]; T-cell line 222-2F12, 3 μg/mL antigen, 0 μg/mL 5673) was 232779 and the “Proliferation (luminescent ATP assay), Mean” value ([1]; T-cell line 222-2F12, 10 μg/mL antigen, 0 μg/mL 5673) was 228761. For the same substance, the “Proliferation (luminescent ATP assay), Mean” value ([1]; T-cell line 222-2F12, 30 μg/mL antigen, 0 μg/mL 5673) was 125994, the “response to GMA in comparison to COP” value ([2]; 205-1F4, Day 50 (Table 27)) was 102.7% and the “response to GMA in comparison to COP” value ([2]; 205-1F4, Day 58 (Table 28)) was 98.5%. The “response to GMA in comparison to COP” value ([2]; 205-1F4, Day 71) was 101.3%, the “Mean, ATP proliferation assay” value ([2]; Day 50, 1 μg/mL) was 17341 and the “Mean, ATP proliferation assay” value ([2]; Day 50, 3 μg/mL) was 195335. For the same substance, the “Mean, ATP proliferation assay” value ([2]; Day 50, 10 μg/mL) was 218954, the “Mean, ATP proliferation assay” value ([2]; Day 58, 3 μg/mL) was 29921 and the “Mean, ATP proliferation assay” value ([2]; Day 58, 10 μg/mL) was 30998. For the same substance, the “Mean, ATP proliferation assay” value ([2]; Day 58, 30 μg/mL) was 33915, the “Mean, ATP proliferation assay” value ([2]; Day 58, 100 μg/mL) was 32698 and the “Proliferation (luminescent ATP assay), Mean” value ([2]; Day 71, 1 μg/mL antigen) was 17341. The “Proliferation (luminescent ATP assay), Mean” value ([2]; Day 71, 3 μg/mL antigen) was 195335, the “Proliferation (luminescent ATP assay), Mean” value ([2]; Day 71, 10 μg/mL antigen) was 218954 and the “Proliferation (luminescent ATP assay), Mean” value ([2]; Day 80, 1 μg/mL antigen) was 7,477. The “Proliferation (luminescent ATP assay), Mean” value ([2]; Day 80, 2 μg/mL antigen) was 64,999, the “Proliferation (luminescent ATP assay), Mean” value ([2]; Day 80, 5 μg/mL antigen) was 83,107 and the “Proliferation (luminescent ATP assay), Mean” value ([2]; Day 80, 10 μg/mL antigen) was 67,482. For the same substance, the “Reactivity (proliferation), Mean” value ([2]; T-cell line 205-1H3, 1 μg/mL antigen, 0 μg/mL 4121.0) was 37654.3, the “Reactivity (proliferation), Mean” value ([2]; T-cell line 205-1H3, 3 μg/mL antigen, 0 μg/mL 4121.0) was 55284.3 and the “Reactivity (proliferation), Mean” value ([2]; T-cell line 205-1H3, 10 μg/mL antigen, 0 μg/mL 4121.0) was 60841.7.

With poly (Glu-Lys-Tyr; 6:3:1) [GLT 631] the “proliferation response to non-canonical GA peptides” value ([1]; 222-1H12, Day 56, 0, 3, 10, 30 μg/mL) was “responded”, the “luminescent ATP proliferation assay, mean” value ([1]; 222-2F12, Day 56, 3 μg/mL) was 5277 and the “luminescent ATP proliferation assay, mean” value ([1]; 222-2F12, Day 56, 10 μg/mL) was 4934. The “luminescent ATP proliferation assay, mean” value ([1]; 222-2F12, Day 56, 30 μg/mL) was 5217, the “Non-Canonical Peptide Non-Reactivity” value ([1]; 222-2F12, proliferation <2 times no antigen control) was “GLT 631” and the “Reactive T-Cell Line” value ([1]; Donor 1 COP lines, at least a 50% increase in proliferation relative to a control after stimulation with the non-canonical GA peptide) was 222-1H12 (Donor 1). The “Nonreactive T-Cell Line” value ([1]; Donor 1 COP lines, stimulation with the non-canonical GA peptide) was 222-2F12 (Donor 1), the “Non-Canonical Peptide Non-Reactivity” value ([2]; 205-1B4) was “GLT 631” and the “Non-Canonical Peptide Non-Reactivity” value ([2]; 205-1C4) was “GLT 631”. For the same substance, the “Non-Canonical Peptide Non-Reactivity” value ([2]; 205-1F4) was “GLT 631”, the “Non-Canonical Peptide Non-Reactivity” value ([2]; 205-1H3) was “GLT 631” and the “Non-Canonical Peptide Non-Reactivity” value ([2]; 205-1H5) was “GLT 631”. For the same substance, the “reactivity to non-canonical GA peptides” value ([2]; 205-1H7, after seven stimulations, 0, 1, 10, 30 μg/mL) was “reactivity”, the “Non-Canonical Peptide Reactivity” value ([2]; 205-1H7, at least one proliferation value >=2 times no antigen control) was “GLT 631” and the “Non-Canonical Peptide Non-Reactivity” value ([2]; 205-1H11) was “GLT 631”. For the same substance, the “Reactive T-Cell Line” value ([2]; Donor 4 COP lines, at least a 50% increase in proliferation relative to a control after stimulation with the non-canonical GA peptide) was 205-1H7 (Donor 4), the “Nonreactive T-Cell Line” value ([2]; Donor 4 COP lines, stimulation with the non-canonical GA peptide) was 205-1B4 (Donor 4) and 205-1C4 (Donor 4) and 205-1F4 (Donor 4) and 205-1H3 (Donor 4) and 205-1H5 (Donor 4) and 205-1H11 (Donor 4) and the “Reactivity (proliferation), Mean” value ([2]; T-cell line 205-1B4, 1 μg/mL antigen, No Antigen 830) was 912 RLU. The “Reactivity (proliferation), Mean” value ([2]; T-cell line 205-1B4, 3 μg/mL antigen, No Antigen 830) was 1059 RLU, the “Reactivity (proliferation), Mean” value ([2]; T-cell line 205-1B4, 10 μg/mL antigen, No Antigen 830) was 1387 RLU and the “Reactivity (proliferation), Mean” value ([2]; T-cell line 205-1B4, 30 μg/mL antigen, No Antigen 830) was 1389 RLU. The “Reactivity (proliferation), Mean” value ([2]; T-cell line 205-1C4, 1 μg/mL antigen, No Antigen 4464) was 4559 RLU, the “Reactivity (proliferation), Mean” value ([2]; T-cell line 205-1C4, 3 μg/mL antigen, No Antigen 4464) was 4934 RLU and the “Reactivity (proliferation), Mean” value ([2]; T-cell line 205-1C4, 10 μg/mL antigen, No Antigen 4464) was 5616 RLU. For the same substance, the “Reactivity (proliferation), Mean” value ([2]; T-cell line 205-1C4, 30 μg/mL antigen, No Antigen 4464) was 5782 RLU, the “Proliferation (luminescent ATP assay), Mean” value ([2]; Day 71, 1 μg/mL antigen) was 1938 and the “Proliferation (luminescent ATP assay), Mean” value ([2]; Day 71, 3 μg/mL antigen) was 1863. For the same substance, the “Proliferation (luminescent ATP assay), Mean” value ([2]; Day 71, 10 μg/mL antigen) was 2504, the “Reactivity (proliferation), Mean” value ([2]; T-cell line 205-1H5, 1 μg/mL antigen, No Antigen 749) was 710 RLU and the “Reactivity (proliferation), Mean” value ([2]; T-cell line 205-1H5, 3 μg/mL antigen, No Antigen 749) was 885 RLU. For the same substance, the “Reactivity (proliferation), Mean” value ([2]; T-cell line 205-1H5, 10 μg/mL antigen, No Antigen 749) was 1153 RLU and the “Reactivity (proliferation), Mean” value ([2]; T-cell line 205-1H5, 30 μg/mL antigen, No Antigen 749) was 1294 RLU.
